Consider 15 compounds from US9376380B2 (University of Pittsburgh—Of the Commonwealth System of …, priority 2011, dated 2016).

For data set [1], the system named is Human MM cell U266. In words: [3H]-thymidine uptake cell proliferation assay, U266. Type of data set: cell-based. The note with it: U266, 0-10 μmol/L, 48 h. Here is the method:
FIG. 2. Inhibitory effects of CB2 ligands on human MM cell growth. Human MM cell U266 (3×10^4 cells per well in 96-well plate) was exposed to the known CB2 ligands (A) or PAM (B) at indicated concentrations (0-10 μmol/L) for 48 h. Cell proliferation was measured by [^3H]-thymidine uptake assay as described in Materials and Methods. (C) U266 cells (3×10^4 per well in 96-well plate) were treated with PAM at indicated doses for 48 h. Cell viability and the viable cell number per well were determined using trypan blue exclusion assay. (D) Human chemoresistant myeloma cell lines MM.1R (dexamethasone), RPMI-8226/LR5 (melphalan) and their respective parent cells MM.1S and RPMI-8226 were exposed to PAM for 48 h. Cell proliferation was measured by ^3H-thymidine incorporation. The data presented are the mean±SD of at least 3 independent measurements. (E) [S^35]-GTPγS binding assay of different ligands on human CB2 receptor expressed in CHO cells.
A tritiated thymidine incorporation assay was carried out to investigate the effects of CB2 ligands on cell proliferation. U266, RPMI-8226 (3×10^4 cells/well), MM.1 S cells (6×10^4 cells/well), and their resistant sublines were cultured in 96-well culture plates with or without drugs for 48 hours. DNA synthesis was measured by ^3H-thymidine uptake as described previously.

In data set [2] the target is CB2 receptor (Homo sapiens, UniProt P34972). Description: [3H]CP-55,940 radioligand competition binding, CB2. More on the design: host or cells: cell membrane preparations. The note with it: for SI: selectivity index for CB2: Ki(CB1)/Ki(CB2) ratio. A general note: In a radioligand displacement assay an active substance lowers the binding of a labelled ligand.
Chain of CB2 receptor (P34972 whole entry): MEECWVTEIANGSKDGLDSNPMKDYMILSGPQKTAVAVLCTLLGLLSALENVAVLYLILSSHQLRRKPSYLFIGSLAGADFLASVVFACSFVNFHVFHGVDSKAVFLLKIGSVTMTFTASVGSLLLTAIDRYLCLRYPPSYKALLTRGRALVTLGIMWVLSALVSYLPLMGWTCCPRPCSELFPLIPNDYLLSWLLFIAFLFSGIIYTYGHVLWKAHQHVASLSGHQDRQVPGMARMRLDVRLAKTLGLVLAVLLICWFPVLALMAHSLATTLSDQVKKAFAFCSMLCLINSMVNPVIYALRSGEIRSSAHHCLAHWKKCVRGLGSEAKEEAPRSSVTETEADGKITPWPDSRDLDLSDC
Experimental: (§1) Briefly, the bioassay is carried out using the Perkin Elmer 96-well Top Counter. […] The procedure is as follows.
(§2) In competition binding experiments, the tested compound dilutions are carried out in duplicate in TME buffer (25 mM Tris, 5 mM MgCl2, 1 mM EDTA) containing 0.1% (w/v) fatty acid free bovine serum albumin (BSA), pH 7.4. […] TME buffer and cell membrane preparations expressing CB receptors (5 μg per well) are added to a final volume of 200 μL. […] After the binding suspensions are incubated at 30° C. for 1 hr, the reaction is terminated by rapid filtration through microfiltration plates (Unifilter GF/B filterplate, PerkinElmer), followed by 5 washes with ice cold TME buffer containing 0.1% BSA on a Packard Filtermate Harvester (PerkinElmer). The plates are then dried overnight and 30 μl MicroScint 0 scintillation cocktail is added to each well of the dried filter plates. The bound radioactivity is then counted using a Perkin Elmer 96-well TopCounter. […] This assay is used for determination of the binding affinity parameters (Ki) of ligand-receptor interactions for the CB receptor.
The subject of data set [3] is RAW 264.7 cells. In words: RANKL-induced osteoclast differentiation on RAW 264.7 cells (TRAP). Type of data set: cell-based, mouse. The settings on record: for inhibition activity at low dose / inhibition at 1 µM: 1 μM; for inhibition at 0.1 µM / inhibition at 1 µM / inhibition at 10 µM: Mus musculus, RAW264.7, read-out: inhibition rate of osteoclast formation; for inhibition of RANKL-induced osteoclastogenesis, dose dependence: RANKL 15 ng/mL, 5 days. The source says: FIG. 5. Anti-osteoclastogenesis activity of exemplary compounds. […] The bar indicates the SD. (B) Photographs of cells in the test of compound 93 (original magnification 100×).

The target of data set [4] is T1, CB1 receptor (Homo sapiens, UniProt P21554).
T1 construct: host or cells: cell membrane preparations
T1 sequence (P21554 whole entry): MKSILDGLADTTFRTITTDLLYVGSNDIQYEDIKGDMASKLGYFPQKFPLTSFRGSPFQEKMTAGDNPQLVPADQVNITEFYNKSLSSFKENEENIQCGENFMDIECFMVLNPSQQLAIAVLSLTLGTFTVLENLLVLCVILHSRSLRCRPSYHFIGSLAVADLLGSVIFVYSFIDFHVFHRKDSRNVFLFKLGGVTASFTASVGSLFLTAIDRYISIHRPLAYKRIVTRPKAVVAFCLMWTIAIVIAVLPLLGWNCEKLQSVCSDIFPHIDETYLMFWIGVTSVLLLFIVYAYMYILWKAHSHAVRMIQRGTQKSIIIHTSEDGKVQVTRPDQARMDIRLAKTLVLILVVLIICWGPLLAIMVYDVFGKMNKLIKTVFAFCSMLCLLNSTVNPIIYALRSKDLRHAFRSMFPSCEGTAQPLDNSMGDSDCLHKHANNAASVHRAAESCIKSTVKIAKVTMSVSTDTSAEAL
In words: [3H]CP-55,940 radioligand competition binding, CB1. The settings on record: [3H]CP-55,940 displacement; read-out: Ki (CB1).
Experimental: as §1, §2

Data set [5] concerns peripheral blood mononuclear cell (PBMC). In words: Cytotoxicity on normal human PBMC, trypan blue exclusion. Type of data set: cell-based. The settings on record: 3 days. An excerpt: Peripheral blood was drawn in a heparinized syringe from healthy fasting volunteers who had been without medication for at least 2 weeks. The peripheral blood mononuclear cell (PBMC) fraction was obtained by gradient centrifugation over Ficoll-Hypaque (Amersham), as described by Feng, R. et al. S. KD5170, a novel mercaptoketone-based histone deacetylase inhibitor, exerts antimyeloma effects by DNA damage and mitochondrial signaling, Mol. Cancer Ther. 2008, 7, 1494-1505. […] The compounds in a stock solution (50 mMin DMSO) were diluted with the culture medium to application conditions and further used for the treatment of PBMC for 3 days. The final DMSO concentrations are always 0.02%. After treatment for 72 h, cell viability was determined using trypan blue exclusion assay. These human cell studies conformed to the guidelines of the Institutional Review Board of the University of Pittsburgh, Pa.

The mark [6] stands for this setting: [3H]CP-55,940 displacement, read-out: Ki (CB2).

Read-outs that look alike come from different tables or passages of the source. Bounds are passed on as bounds.

Turning to `CCCCCCC(C)(C)c1cc(OC)c([C@@H]2C=C(CO)[C@@H]3C[C@H]2C3(C)C)c(OC)c1` [Hu308], the “inhibition of DNA synthesis in MM cells” value in data set [1] is recorded as “no effect”.
Same read-out and setting: next, `COc1ccc(C(=O)c2c(C)n(CCN3CCOCC3)c3cc(I)ccc23)cc1` [AM630]: “dose dependent inhibition”.
For the compound `CCN(CC)c1ccc(CN(c2ccc(C)cc2)S(=O)(=O)c2ccc(OC)cc2)cc1` [Compound 93, N-(4-(Diethylamino)benzyl)-4-methoxy-N-(p-tolyl)benzenesulfonamide], the “SI: selectivity index for CB2” value in data set [2] came to 2594. The Ki (usually the equilibrium dissociation constant of an inhibitor or competing ligand from its target) in data set [2] (setting [6]) was 0.5 nM. Also, in data set [3], the “inhibition activity at low dose” value is listed as “good inhibition activity”; the inhibition – broadly, the percentage by which the read-out fell short of the control – at 0.1 µM amounted to 46%; the inhibition at 1 µM was 97%; the inhibition at 10 µM worked out at 100%. Moreover, the “inhibition of RANKL-induced osteoclastogenesis, dose dependence” value (“inhibition … dose dependence” for short) in data set [3] is reported as “dose-dependent manner”. Besides, in data set [4], the Ki turned out to be 1300 nM. Moreover, in data set [5] (1.25 and 2.5 μM), the “cell viability vs vehicle control” value is “not significantly affected”. Moreover, the “effects on cell viability” value in data set [5] (5 and 10 μM) is on record as “only some effects on cell viability”. The “cell viability vs vehicle control” value in data set [5] is recorded as “not significantly affected”.
Turning to `CC(C)Oc1ccc(C(NC(=O)Cc2ccccc2)NC(=O)Cc2ccccc2)cc1` [Compound 12, N,N′-((4-isopropoxyphenyl)methylene)bis(2-phenylacetamide)], the “cell viability vs vehicle control” value in data set [5] is on record as “not significantly affected”.
`CCN(CC)c1ccc(CN(C23CC4CC(CC(C4)C2)C3)S(=O)(=O)c2cccc(C)c2)cc1` [Compound 61, N-((3s,5s,7s)-Adamantan-1-yl)-N-(4-(diethylamino)benzyl)-3-methylbenzenesulfonamide]: the Ki in data set [2] amounted to 19 nM; in data set [4], 8220 nM. Moreover, the “inhibition … dose dependence” value in data set [3] was “dose-dependent manner”.
In the case of `CC(C)c1ccc(C(NC(=O)Cc2ccccc2)NC(=O)Cc2ccccc2)cc1` [Compound 9, N,N′-((4-isopropylphenyl)methylene)bis(2-phenylacetamide)], the “cell viability vs vehicle control” value in data set [5] was “not significantly affected”.
Regarding `CCN(CC)c1ccc(CN(c2ccc(Cl)cc2)S(=O)(=O)c2ccc(OC)cc2)cc1` [Compound 84, N-(4-Chlorophenyl)-N-(4-(diethylamino)benzyl)-4-methoxybenzenesulfonamide], in data set [2], the “SI: selectivity index for CB2” value was >1,428. In addition, in data set [2] (setting [6]), the Ki was found to be 14 nM. For the same compound, in data set [3], the “inhibition activity at low dose” value is reported as “good inhibition activity”; the inhibition at 1 µM was 97%; the “inhibition … dose dependence” value is given as “dose-dependent manner”. Also, the Ki in data set [4] is > 20000 nM. Moreover, in data set [5] (5 μM), the “effect on cell viability” value is reported as “only slight effect on cell viability”. Further, the “cell viability vs vehicle control” value in data set [5] (1.25 and 2.5 μM) is “not significantly affected”. For the same compound, the “effects on cell viability” value in data set [5] (5 and 10 μM) was “only some effects on cell viability”. Moreover, in data set [5], the “cell viability vs vehicle control” value is reported as “not significantly affected”.
Take `CCN(CC)c1ccc(C(NC(=O)Cc2ccccc2)NC(=O)Cc2ccccc2)cc1` [Compound 17, N,N′-((4-(diethylamino)phenyl)methylene)bis(2-phenylacetamide)]: the “SI: selectivity index for CB2” value in data set [2] is >313. For the same compound, in data set [2] (setting [6]), the Ki came to 64 nM. Moreover, in data set [3], the inhibition at 0.1 µM stood at 72%, the inhibition at 1 µM turned out to be 79% and the inhibition at 10 µM worked out at 84%. The cytotoxic effects entry in data set [5] (1 μM) is listed as “did not show any cytotoxic effects”. In addition, the “effects on cell viability” value in data set [5] (10 μM) was “only slight effects on cell viability”. For the same compound, the “cell viability vs vehicle control” value in data set [5] was “not significantly affected”.
For the compound `CCN(CC)c1ccc(C(NC(=O)C(C)C)NC(=O)C(C)C)cc1` [Compound 50, N,N′-((4-(diethylamino)phenyl)methylene)bis(2-methylpropanamide)], the results for the Ki in data set [2] (setting [6]) and in data set [4] were 2640 nM and > 20000 nM, respectively.
In the case of `CCN(CC)c1ccc(CN(C(=O)Cc2ccc(Cl)cc2)c2ccc(Cl)cc2)cc1` [Compound 88, N,2-bis(4-Chlorophenyl)-N-(4-(diethylamino)benzyl)acetamide], the “SI: selectivity index for CB2” value in data set [2] was determined as 147. The Ki in data set [2] (setting [6]) was 136 nM; in data set [4], > 20000 nM.
As for `CCN(CC)c1ccc(CN(c2ccc(Cl)cc2)S(=O)(=O)c2cccc(C)c2)cc1` [Compound 86, N-(4-Chlorophenyl)-N-(4-(diethylamino)benzyl)-3-methylbenzenesulfonamide], the Ki was 2.8 nM in data set [2] (setting [6]) and 866 nM in data set [4].
With `CCN(CC)c1ccc(CN(C23CC4CC(CC(C4)C2)C3)S(=O)(=O)c2ccc(Cl)cc2)cc1` [Compound 58, N-((3s,5s,7s)-Adamantan-1-yl)-4-chloro-N-(4-(diethylamino)benzyl)benzenesulfonamide], the “SI: selectivity index for CB2” value in data set [2] was 11. The Ki in data set [2] (setting [6]) turned out to be 173 nM; in data set [4], 2030 nM.
Consider `CCN(CC)c1ccc(CN(C23CC4CC(CC(C4)C2)C3)S(=O)(=O)c2ccc(F)cc2)cc1` [Compound 57, N-((3s,5s,7s)-Adamantan-1-yl)-N-(4-(diethylamino)benzyl)-4-fluorobenzenesulfonamide], for which the inhibition constant Ki was found to be 25 nM in data set [2] and 4270 nM in data set [4].
Regarding `CCN(CC)c1ccc(CN(c2ccc(Cl)cc2)S(=O)(=O)c2ccc(C)cc2)cc1` [Compound 85, N-(4-Chlorophenyl)-N-(4-(diethylamino)benzyl)-4-methylbenzenesulfonamide], in data set [2], the “SI: selectivity index for CB2” value is reported as 3.7. Further, the inhibition constant Ki worked out at 37 nM in data set [2] (setting [6]) and 137 nM in data set [4].
Consider `CCN(CC)c1ccc(C(NC(=O)C=Cc2ccccc2)NC(=O)C=Cc2ccccc2)cc1` (stereo not drawn) [Compound 48, N,N′-((4-(Diethylamino)phenyl)methylene)bis(3-phenylacrylamide)], for which the “SI: selectivity index for CB2” value in data set [2] is reported as >119. For the same compound, the Ki in data set [2] (setting [6]) was 167 nM; in data set [4] it was > 20000 nM.
